Assay results published in patent publication US10407445B2, “Hepatitis C virus inhibitors” (ENANTA PHARMACEUTICALS, INC., priority 2013, dated 2019).
Where two headings read alike, the source gives them in different places.

Columns and labels:
Assay type in all cases: cell-based
[1] = test system: GT1a replicon encoding NS5A mutation Q30R; assay: Transient replication assay, GT1a replicon with NS5A mutation Q30R; conditions: Hepatitis C virus
HCV GT 1a replicon = assay: HCV replicon assay, stable GT 1a replicon (Renilla luciferase); conditions: Hepatitis C virus, GT1A
Summary of the method: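 Huh-7.5 cells stably carrying a GT1a replicon (H77-based) with Renilla luciferase-Neo reporter, 4000 cells/well, sixteen-point half-log compound series, phenol red-free DMEM without G418. Luciferase read after 72 h relative to DMSO-treated cells gives EC50.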

HCV GT 3a replicon = assay: HCV replicon assay, GT2a chimeric replicon expressing NS5A from GT3a strain S52; conditions: Hepatitis C virus
Summary of the method: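 Stable Huh-7.5 lines carried JFH-1 subgenomic replicons with hRluc-Neo reporter, in which NS5A was swapped for GT3a strain S52 or GT2a strain J6 NS5A. Renilla luciferase was read after 72 h relative to DMSO controls.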

[2] = HCV GT 1a replicon, 72 h, read-out: EC50 1a

Row | SMILES | EC50 ([1]; read-out: EC50 1a Q30R) | EC50 (HCV GT 1a replicon; [2]) | EC50 (HCV GT 3a replicon; 72 h, read-out: EC50 3a) | EC50 ([1]; read-out: EC50 (nM) 1a Q30R) | EC50 (HCV GT 1a replicon; comparative table, GT 1a, read-out: EC50 (nM) 1a) | EC50 (HCV GT 3a replicon; read-out: EC50 (nM) 3a)
1 | COC(=O)N[C@H](C(=O)N1C[C@]2(CCCOC2)C[C@H]1c1nc2ccc3cc(-c4ccc5c(ccc6nc([C@@H]7C[C@@H]8CCC[C@@H]8N7C(=O)[C@@H](NC(=O)OC)C(C)C)[nH]c65)c4)ccc3c2[nH]1)C(C)C [Compound 9] | 0.01 nM | 0.007 nM | 0.06 nM |  |  | 
2 | COC(=O)N[C@H](C(=O)N1C[C@]2(CCOC2)C[C@H]1c1ncc(-c2ccc(-c3ccc4c(ccc5nc([C@@H]6CCCN6C(=O)[C@@H](NC(=O)OC)C(C)C)[nH]c54)c3)cc2)[nH]1)C(C)C [Compound 26] | 0.8 nM | 0.025 nM | 2 nM |  |  | 
3 | COC(=O)N[C@H](C(=O)N1C[C@]2(CCCOC2)C[C@H]1c1nc2ccc3cc(-c4ccc(-c5cnc([C@@H]6C[C@@H]7COC[C@@H]7N6C(=O)[C@@H](NC(=O)OC)C(C)C)[nH]5)cc4)ccc3c2[nH]1)C(C)C [Compound 34] | 0.02 nM | 0.024 nM | 1.5 nM |  |  | 
4 | COC(=O)N[C@H](C(=O)N1CCC[C@H]1c1ncc(-c2ccc(-c3ccc4c(c3)OCc3nc([C@@H]5C[C@@]6(CCCOC6)CN5C(=O)[C@@H](NC(=O)OC)C(C)C)[nH]c3-4)cc2)[nH]1)C(C)C [Compound 33] | 0.2 nM | 0.027 nM | 0.2 nM |  |  | 
5 | COC(=O)N[C@H](C(=O)N1C[C@]2(CCCOC2)C[C@H]1c1ncc(-c2ccc(-c3ccc4c(ccc5nc([C@@H]6CCCN6C(=O)[C@@H](NC(=O)OC)C(C)C)[nH]c54)c3)cc2)[nH]1)C(C)C [drawing 233] |  |  |  | 0.1 nM | 0.01 nM | 0.08 nM
6 | COC(=O)N[C@H](C(=O)N1C[C@]2(CCCOC2)C[C@H]1c1ncc(-c2ccc(-c3ccc(-c4cnc([C@@H]5C[C@@H]6CCCC[C@@H]6N5C(=O)[C@@H](NC(=O)OC)C(C)C)[nH]4)cc3)cc2)[nH]1)C(C)C [Compound 32] | 0.04 nM | 0.007 nM | 2 nM |  |  | 
7 | COC(=O)N[C@H](C(=O)N1C[C@]2(CCCOC2)C[C@H]1c1ncc(-c2ccc(-c3ccc4c(ccc5nc([C@@H]6C[C@@H]7CCCC[C@@H]7N6C(=O)[C@@H](NC(=O)OC)C(C)C)[nH]c54)c3)cc2)[nH]1)C(C)C [Compound 29] | 0.01 nM | 0.006 nM | 0.3 nM |  |  | 
8 | COC(=O)N[C@H](C(=O)N1C[C@]2(CCCOC2)C[C@H]1c1nc2ccc3cc(-c4ccc5c(ccc6nc([C@@H]7C[C@@H]8C[C@@H]8N7C(=O)[C@@H](NC(=O)OC)C(C)C)[nH]c65)c4)ccc3c2[nH]1)C(C)C [Compound 21] | 0.1 nM | 0.02 nM | 0.09 nM |  |  | 
9 | COC(=O)N[C@H](C(=O)N1C[C@]2(CCCOC2)C[C@H]1c1ncc(-c2ccc(-c3ccc4c(ccc5nc([C@@H]6C[C@H]7C[C@H]7N6C(=O)[C@@H](NC(=O)OC)C(C)C)[nH]c54)c3)cc2)[nH]1)C(C)C [Compound 18] | 0.05 nM | 0.007 nM | 1 nM |  |  | 
10 | COC(=O)N[C@H](C(=O)N1C[C@]2(CCCO2)C[C@H]1c1ncc(-c2ccc(-c3ccc4c(ccc5nc([C@@H]6CCCN6C(=O)[C@@H](NC(=O)OC)C(C)C)[nH]c54)c3)cc2)[nH]1)C(C)C [Example 81] | 0.05 nM | 0.015 nM | 3 nM |  |  | 
11 | COC(=O)N[C@H](C(=O)N1CCC[C@H]1c1nc2ccc3cc(-c4ccc5c(ccc6nc([C@@H]7CCCN7C(=O)[C@@H](NC(=O)OC)C(C)C)[nH]c65)c4)ccc3c2[nH]1)C(C)C [Example 101] | 0.2 nM | 0.011 nM | 0.05 nM |  |  | 
12 | COC(=O)N[C@H](C(=O)N1C[C@@]2(CCCO2)C[C@H]1c1ncc(-c2ccc(-c3ccc4c(ccc5nc([C@@H]6CCCN6C(=O)[C@@H](NC(=O)OC)C(C)C)[nH]c54)c3)cc2)[nH]1)C(C)C [Example 82] | 3 nM | 0.059 nM | 5 nM |  |  | 
13 | COC(=O)N[C@H](C(=O)N1C[C@]2(CCCOC2)C[C@H]1c1nc2ccc3cc(-c4ccc(-c5cnc([C@@H]6C[C@@H]7C[C@@H]7N6C(=O)[C@@H](NC(=O)OC)C(C)C)[nH]5)cc4)ccc3c2[nH]1)C(C)C [Compound 22] | 0.1 nM | 0.009 nM | 0.6 nM |  |  | 
